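Tested at 5 concentrations; 48 h exposure; 96-well plates; endpoints linearly interpolated, else capped at highest concentration. GI50: concentration for 50% inhibition of growth. TGI: total growth inhibition.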
What was measured:
Experiment in all cases: inhibition of tumour cell growth, NCI panel, 48 h
UO-31 renal = tested on: UO-31 renal
RXF 393 renal = tested on: RXF 393 renal
OVCAR-3 ovarian = tested on: OVCAR-3 ovarian
TK-10 renal = tested on: TK-10 renal
786-0 renal = tested on: 786-0 renal
A549 NSCLC = tested on: A549 NSCLC
SR leukemia = tested on: SR leukemia
RPMI-8226 leukemia = tested on: RPMI-8226 leukemia
COLO 205 colon = tested on: COLO 205 colon
MOLT-4 leukemia = tested on: MOLT-4 leukemia

SMILES | GI50 (UO-31 renal) [µM] | TGI (UO-31 renal) [µM] | GI50 (RXF 393 renal) [µM] | TGI (RXF 393 renal) [µM] | GI50 (OVCAR-3 ovarian) [µM] | TGI (OVCAR-3 ovarian) [µM] | GI50 (TK-10 renal) [µM] | TGI (TK-10 renal) [µM] | GI50 (786-0 renal) [µM] | TGI (786-0 renal) [µM] | GI50 (A549 NSCLC) [µM] | TGI (A549 NSCLC) [µM] | GI50 (SR leukemia) [µM] | TGI (SR leukemia) [µM] | GI50 (RPMI-8226 leukemia) [µM] | TGI (RPMI-8226 leukemia) [µM] | GI50 (COLO 205 colon) [µM] | TGI (COLO 205 colon) [µM] | GI50 (MOLT-4 leukemia) [µM] | TGI (MOLT-4 leukemia) [µM]
CCCN(CCC)c1ccc(C=O)c(OC)c1 | 16.5 | > 100 | 26.9 | > 100 | 15.1 | 33.9 | 24.2 | 86.1 | 29.4 | > 100 | 28.3 | > 100 | 10.7 | 34.5 | 58.6 | > 100 | 22.3 | 63.4 | 11.9 | 40.4
S=C1SC2(CCCCCC2)NC2=C1CCCCC2 |  | 60.1 |  | > 100 |  | > 100 |  | > 100 |  | > 100 |  | > 100 |  | 80.4 |  | 69.3 |  | 35.8 |  | 66.8
O=c1c2ccccc2c(C=NCCNCCO)c2oc3ccccc3n12 | 9.58 | 22.5 | 4.96 | 22.6 | 11.7 | 24 | 2.73 | 9.61 | 12.4 | 24.9 | 4.03 | 17 | 2.48 | 6.62 | 7.67 | 31.6 | 3.27 | 15.8 | 1.73 | 11.7
COc1ccc(S(=O)(=O)N2CCCCC2)cc1NC(=O)c1[nH]c(C)c2c1CCCCC2=O | 0.379 | 40.7 | 0.818 | 4.09 | 2.64 | > 100 | 0.658 | 38.1 | 1.06 | > 100 | 2.26 | 15 | 0.762 | > 100 | 1.46 | 32.4 | 1.71 | 26.4 | 4.31 | > 100
CC(C)NCCCNC1=C(Cl)C(=O)c2ccccc2C1=O | 14.4 | 29.2 | 14.5 | 27.8 | 1.83 | 3.58 | 22.7 | 38.8 | 18.1 | 33.5 | 11.2 | 33.5 | 2.27 | 6.08 | 3.48 | 19.2 | 1.87 | 3.56 | 2.05 | 4.61
CC(C)(C)c1ccc(NC(=O)c2cc(=O)c3ccccc3[nH]2)c(C(C)(C)C)c1O | 5.15 | 17.5 | 2.31 | 5.16 | 4.84 | 15.9 | 14.5 | 27.9 | 3.05 | 12.1 | 3.23 | 12.6 | 2.13 | 4.69 | 2.89 | 14.1 | 3.8 | 10.5 | 2.67 | 7.59
CN1NC(c2ccccc2)=C(C#N)C(=O)CC1c1ccccc1Cl (stereo not drawn) |  |  |  | > 100 |  |  |  | > 100 |  | > 100 |  | > 100 |  | > 100 |  | > 100 |  | > 100 |  | > 100

From PubChem BioAssay (NCI)
